In the oligonucleotide strings, read from the 5' end, every base follows the letter of its sugar. An asterisk marks phosphorothioate; unmarked linkages are phosphodiester. Other units and linkages are bracketed, terminal groups are in braces. A string of capitals states the bases alone. e = 2'-O-(2-methoxyethyl) (MOE); [5mC] = 5-methylcytosine; d = 2'-deoxy (DNA)
How the values were obtained:
[1] = tested on: human Factor XI mRNA; experiment: Dose-dependent inhibition and IC50 in HepG2 cells, microwalk gapmers, electroporation (Example 16); assay type: cell-based
Experimental: These gapmers were tested at various doses in HepG2 cells. Cells were plated at a density of 20,000 cells per well and transfected using electroporation with 375 nM, 750 nM, 1,500 nM, 3,000 nM, 6,000 nM and 12,000 nM concentrations of antisense oligonucleotide, as specified in Table 54. After a treatment period of approximately 16 hours, RNA was isolated from the cells and Factor XI mRNA levels were measured by quantitative real-time PCR. Human Factor XI primer probe set RTS 2966 was used to measure mRNA levels. Factor XI mRNA levels were adjusted according to total RNA content, as measured by RIBOGREEN. Results are presented as percent inhibition of Factor XI, relative to untreated control cells.
ISIS 416850, ISIS 416858, ISIS 445522, and ISIS 445531 (see Table 52 above) were re-tested in vitro along with the microwalk gapmers under the same conditions described above.
The chimeric antisense oligonucleotides in Table 53 were designed as 3-8-3 MOE, 4-8-4 MOE, 2-10-2 MOE, 3-10-3 MOE, or 4-10-4 MOE gapmers. The 3-8-3 gapmer is 14 nucleotides in length, wherein the central gap segment is comprised of eight 2′-deoxynucleotides and is flanked on both sides (in the 5′ and 3′ directions) by wings comprising three nucleotides each. The 4-8-4 gapmer is 16 nucleotides in length, wherein the central gap segment is comprised of eight 2′-deoxynucleotides and is flanked on both sides (in the 5′ and 3′ directions) by wings comprising four nucleotides each. The 2-10-2 gapmer is 14 nucleotides in length, wherein the central gap segment is comprised of ten 2′-deoxynucleotides and is flanked on both sides (in the 5′ and 3′ directions) by wings comprising two nucleotides each. The 3-10-3 gapmer is 16 nucleotides in length, wherein the central gap segment is comprised of ten 2′-deoxynucleotides and is flanked on both sides (in the 5′ and 3′ directions) by wings comprising three nucleotides each. The 4-10-4 gapmer is 18 nucleotides in length, wherein the central gap segment is comprised of ten 2′-deoxynucleotides and is flanked on both sides (in the 5′ and 3′ directions) by wings comprising four nucleotides each. For each of the motifs (3-8-3, 4-8-4, 2-10-2, 3-10-3, and 4-10-4), each nucleotide in the 5′ wing segment and each nucleotide in the 3′ wing segment has a 2′-MOE modification. The internucleoside linkages throughout each gapmer are phosphorothioate (P═S) linkages. All cytidine residues throughout each gapmer are 5-methylcytidines. “Human Target start site” indicates the 5′-most nucleotide to which the gapmer is targeted in the human sequence. “Human Target stop site” indicates the 3′-most nucleotide to which the gapmer is targeted in the human sequence. Each gapmer listed in Table 53 is targeted to SEQ ID NO: 1 (GENBANK Accession No. NM_000128.3). Each gapmer is Table 53 is also fully cross-reactive with the rhesus monkey Factor XI gene sequence, designated herein as SEQ ID NO: 274 (exons 1-15 GENBANK Accession No. NW—001118167.1). ‘Rhesus monkey start site’ indicates the 5′-most nucleotide to which the gapmer is targeted in the rhesus monkey sequence. ‘Rhesus monkey stop site’ indicates the 3′-most nucleotide to which the gapmer is targeted to the rhesus monkey sequence.
The first two listed gapmers in Table 54 are the original gapmers (ISIS 416850 and ISIS 416858) from which the remaining gapmers were designed via microwalk and are designated by an asterisk.

[2] = tested on: Factor XI mRNA; experiment: Cynomolgus monkeys, 25 mg/kg: liver Factor XI RNA analysis (Example 30); assay type: in vivo; conditions: for % inhibition of Factor XI mRNA in liver relative to the PBS control: 25 mg/kg s.c., day 55; for Factor XI mRNA in liver (in words): cynomolgus monkeys, day 55, in comparison to the PBS control
Experimental: (§1) Groups, each consisting of two male and two female monkeys, were injected subcutaneously with 25 mg/kg of ISIS 416850, ISIS 449709, ISIS 445522, ISIS 449710, ISIS 449707, ISIS 449711, ISIS 449708, 416858 and ISIS 445531. Antisense oligonucleotide was administered to the monkeys at 25 mg/kg three times per week for week 1 and 25 mg/kg twice per week for weeks 2 to 8. A control group, consisting of two male and two female monkeys was injected subcutaneously with PBS according to the same dosing regimen. Body weights were taken 14 days and 7 days before the start of treatment and were then measured weekly throughout the treatment period. Blood samples were collected 14 days and 5 days before the start of treatment and subsequently several times during the dosing regimen for measurement of various hematologic factors. On day 55, the monkeys were euthanized by exsanguination while under deep anesthesia, and organs harvested for further analysis.
On day 55, RNA was extracted from liver tissue for real-time PCR analysis of Factor XI using primer probe set LTS00301. Results are presented as percent inhibition of Factor XI, relative to PBS control.

[3] = tested on: Factor XI protein; experiment: Cynomolgus monkeys: plasma Factor XI protein ELISA (Example 30); assay type: in vivo; conditions: 25 mg/kg s.c., plasma ELISA
Experimental: as §1
Plasma samples from all monkey groups taken on different days were analyzed by a sandwich-style ELISA assay (Affinity Biologicals Inc.) using an affinity-purified polyclonal anti-Factor XI antibody as the capture antibody and a peroxidase-conjugated polyclonal anti-Factor XI antibody as the detecting antibody. Monkey plasma was diluted 1:50 for the assay. Peroxidase activity was expressed by incubation with the substrate o-phenylenediamine. The color produced was quantified using a microplate reader at 490 nm and was considered to be proportional to the concentration of Factor XI in the samples.
The results are presented in Table 148, expressed as percentage reduction relative to that of the PBS control.

[4] = tested on: IL-1β, IL-6, IFN-γ, TNF-α, IL-8, MIP-1α, MCP-1, MIP-10, RANTES; experiment: Cynomolgus monkeys: cytokine and chemokine assays (Example 30); assay type: in vivo
Experimental: as §1
Blood samples obtained from all monkey groups were sent to Pierce Biotechnology (Woburn, Mass.) for measurements of chemokine and cytokine levels. Levels of IL-1β, IL-6, IFN-γ, and TNF-α were measured using the respective primate antibodies and levels of IL-8, MIP-1α, MCP-1, MIP-10 and RANTES were measured using the respective cross-reacting human antibodies. Measurements were taken 14 days before the start of treatment and on day 55, when the monkeys were euthanized.

[5] = day −14 (before start of treatment)

Substance | percent inhibition of Factor XI mRNA ([1]; electroporation, 375 nM) | percent inhibition of Factor XI mRNA ([1]; electroporation, 750 nM) | percent inhibition of Factor XI mRNA ([1]; electroporation, 1,500 nM) | percent inhibition of Factor XI mRNA ([1]; electroporation, 3,000 nM) | percent inhibition of Factor XI mRNA ([1]; electroporation, 6,000 nM) | percent inhibition of Factor XI mRNA ([1]; electroporation, 12,000 nM) | % inhibition of Factor XI mRNA in liver relative to the PBS control [2] | Inhibition of Factor XI protein relative to the PBS control ([3]; Day 10) | Inhibition of Factor XI protein relative to the PBS control ([3]; Day 17) | Inhibition of Factor XI protein relative to the PBS control ([3]; Day 24) | Inhibition of Factor XI protein relative to the PBS control ([3]; Day 31) | Inhibition of Factor XI protein relative to the PBS control ([3]; Day 38) | Inhibition of Factor XI protein relative to the PBS control ([3]; Day 45) | Inhibition of Factor XI protein relative to the PBS control ([3]; Day 52) | Inhibition of Factor XI protein relative to the PBS control ([3]; Day 55) | Inhibition of Factor XI protein relative to the PBS control ([3]; Day −5) | Inhibition of Factor XI protein relative to the PBS control ([3]; Day −14) | other results
449707 (antisense e[5mC]*eA*e[5mC]*eA*dG*dT*dT*dT*d[5mC]*dT*dG*dG*e[5mC]*eA*eG*eG) [compound 449707] | 7% | 35% | 63% | 73% | 85% | 91% | 47% | 16% | 19% | 21% | 29% | 28% | 35% | 29% | 32% | 0% | 0% | 
449708 (antisense eA*e[5mC]*eA*dG*dT*dT*dT*d[5mC]*dT*dG*dG*e[5mC]*eA*eG) [compound 449708] | 0% | 0% | 22% | 33% | 61% | 85% | 46% | 7% | 15% | 3% | 14% | 9% | 2% | 6% | 6% | 0% | 1% | 
449709 (antisense eG*e[5mC]*eA*e[5mC]*dA*dG*dT*dT*dT*d[5mC]*dT*dG*dG*d[5mC]*eA*eG*eG*e[5mC]) [compound 449709] | 52% | 71% | 80% | 87% | 92% | 95% | 69% | 27% | 35% | 44% | 45% | 46% | 48% | 47% | 50% | 0% | 1% | 
449710 (antisense e[5mC]*eA*e[5mC]*dA*dG*dT*dT*dT*d[5mC]*dT*dG*dG*d[5mC]*eA*eG*eG) [compound 449710] | 2% | 21% | 52% | 70% | 82% | 87% | 52% | 10% | 14% | 17% | 25% | 20% | 23% | 4% | 24% | 0% | 1% | 
449711 (antisense eA*e[5mC]*dA*dG*dT*dT*dT*d[5mC]*dT*dG*dG*d[5mC]*eA*eG) [compound 449711] | 6% | 14% | 1% | 7% | 32% | 52% | 0% | 5% | 3% | 6% | 9% | 2% | 4% | 3% | 5% | 1% | 0% | 
ISIS 449707: microwalk gapmer of Table 53 (antisense e[5mC]*eA*e[5mC]*eA*dG*dT*dT*dT*d[5mC]*dT*dG*dG*e[5mC]*eA*eG*eG) |  |  |  |  |  |  |  |  |  |  |  |  |  |  |  |  |  | Factor XI mRNA in liver (in words) [2]: significant reduction of Factor XI mRNA; IL-1β level ([4]; 25 mg/kg s.c., day 55): 97 pg/mL; MIP-1β level ([4]; 25 mg/kg s.c., day 55): 49 pg/mL; IL-1β level [4, 5]: 115 pg/mL; MIP-1β level [4, 5]: 13 pg/mL
ISIS 449708: microwalk gapmer of Table 53 (antisense eA*e[5mC]*eA*dG*dT*dT*dT*d[5mC]*dT*dG*dG*e[5mC]*eA*eG) |  |  |  |  |  |  |  |  |  |  |  |  |  |  |  |  |  | Factor XI mRNA in liver (in words) [2]: significant reduction of Factor XI mRNA; IL-1β level ([4]; 25 mg/kg s.c., day 55): 131 pg/mL; MIP-1β level ([4]; 25 mg/kg s.c., day 55): 128 pg/mL; IL-1β level [4, 5]: 35 pg/mL; MIP-1β level [4, 5]: 19 pg/mL

Source: patent US20120083522A1, “MODULATION OF INFLAMMATORY RESPONSES BY FACTOR XI” (Isis Pharmaceuitcals, inc., priority 2009, published 2012)
